Laboratory results published in PubChem BioAssay (NCI).
Several values for one entry are separate records, joined by “and”; a condition that tells them apart may be missing. Identical values can stand only once.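 In this assay, cells in 96-well plates receive the compound at five concentrations for 48 hours. Endpoints are linearly interpolated between the surrounding concentrations. Here, GI50 denotes the concentration required for 50% inhibition of growth. TGI: total growth inhibition.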

How the values were obtained:
Test in all cases: NCI tumour cell line growth inhibition, 48 h
BT-549 breast = tested on: BT-549 breast
DU-145 prostate = tested on: DU-145 prostate
LOX IMVI melanoma = tested on: LOX IMVI melanoma
MOLT-4 leukemia = tested on: MOLT-4 leukemia
OVCAR-3 ovarian = tested on: OVCAR-3 ovarian
OVCAR-5 ovarian = tested on: OVCAR-5 ovarian
SK-MEL-2 melanoma = tested on: SK-MEL-2 melanoma
SF-539 CNS = tested on: SF-539 CNS
HL-60(TB) leukemia = tested on: HL-60(TB) leukemia
SNB-75 CNS = tested on: SNB-75 CNS

Row | Compound | TGI (BT-549 breast) [µM] | TGI (DU-145 prostate) [µM] | TGI (LOX IMVI melanoma) | TGI (MOLT-4 leukemia) | TGI (OVCAR-3 ovarian) | TGI (OVCAR-5 ovarian) [µM] | TGI (SK-MEL-2 melanoma) [µM] | GI50 (BT-549 breast) [µM] | GI50 (DU-145 prostate) [µM] | GI50 (LOX IMVI melanoma) | GI50 (MOLT-4 leukemia) [µM] | GI50 (OVCAR-3 ovarian) [µM] | GI50 (OVCAR-5 ovarian) | GI50 (SF-539 CNS) | TGI (SF-539 CNS) | GI50 (SK-MEL-2 melanoma) [µM] | TGI (HL-60(TB) leukemia) [µM] | TGI (SNB-75 CNS) [µM] | GI50 (HL-60(TB) leukemia) [µM] | GI50 (SNB-75 CNS) [µM]
1 | CN1CCN(C(=S)N(C)C(=O)c2ccco2)CC1 | > 100 | > 100 | > 100 µM | > 100 µM | > 100 µM | > 100 | > 100 |  |  |  |  |  |  |  |  |  |  |  |  | 
2 | N#CC(C#N)=C/C=C(\Cl)c1ccc(Cl)cc1 | 22 | 29.7 |  | > 100 µM | 17.4 µM | 24.5 | > 100 | 8.32 | 11.6 | 1.18 µM | 0.696 | 6.5 | 8.78 µM | 4.66 µM | 15.9 µM | 17.7 |  |  |  | 
3 | C1CSCCCSCCCSCCCSCCCSCCCSCCCSCCCSC1 | > 100 | > 100 | > 100 µM | > 100 µM | > 100 µM | > 100 | > 100 |  |  |  |  |  |  |  | > 100 µM |  | > 100 |  |  | 
4 | O=C(COc1ccccc1Cl)N1N=C(c2ccc(Cl)cc2)CC1(O)c1ccccc1 (stereo not drawn) |  |  | > 100 µM | > 100 µM | > 100 µM | > 100 | > 100 |  |  |  |  |  |  |  | > 100 µM |  | > 100 | > 100 |  | 
5 | O=c1cc(-c2cccs2)[nH]c2cc3c(cc12)OCO3 |  |  | > 100 µM | > 100 µM | > 28.5 µM | > 100 | > 48 |  |  |  |  |  |  |  | 12.7 µM |  | 40.1 | 6.63 |  | 
6 | CN(C)CCNC(=O)Cn1ccc(=O)c2cc([N+](=O)[O-])ccc21 |  | > 100 | > 100 µM | > 100 µM | > 100 µM | > 100 | > 100 |  |  |  |  |  |  |  | > 100 µM |  | > 100 |  |  | 
7 | COC(=O)c1sc(C(=O)OC)c2c1CS(=O)C2 |  |  | > 100 µM | > 100 µM | > 100 µM | > 100 | > 100 |  |  |  |  |  |  |  | > 100 µM |  | > 100 | > 100 |  | 
8 | O=C1C[C@H]2CCCN2[C@@H](c2ccccc2)C1 |  |  | > 100 µM | > 100 µM | > 100 µM | > 100 | > 100 |  |  |  |  |  |  |  | > 100 µM |  | > 100 | > 100 |  | 
9 | CCOC(=O)Cc1nc2ccc3c(c2[nH]c1=O)C(=O)c1ccccc1C3=O |  |  | > 100 µM | 54.2 µM | > 100 µM | > 100 | > 100 |  |  |  |  |  |  |  | > 100 µM |  |  | > 100 |  | 
10 | CCc1cccc(C)c1NS(=O)(=O)c1ccccc1 |  |  |  | > 100 µM | > 100 µM | > 100 | > 100 |  |  |  |  |  |  |  | > 100 µM |  | > 100 | > 100 |  | 
11 | O=C(O)CCNS(=O)(=O)c1ccc(NC(=O)c2ccccc2)cc1 |  |  | > 100 µM | > 100 µM | > 100 µM | > 100 | > 100 |  |  |  |  |  |  |  | > 100 µM |  | > 100 | > 100 |  | 
12 | Cn1ccnc1CCc1c(Cl)cccc1Cl |  |  | > 100 µM | > 100 µM | > 100 µM | > 100 | > 100 |  |  |  |  |  |  |  | > 100 µM |  | > 100 | > 100 |  | 
13 | O=C1C2C3C=C4c5ccccc5N(c5ccccc5)C4(C2C(=O)N1c1ccccc1)C1C(=O)N(c2ccccc2)C(=O)C31 (stereo not drawn) |  |  | > 100 µM | > 100 µM |  | > 100 | > 100 |  |  |  |  |  |  |  |  |  | > 100 | > 100 |  | 
14 | COc1cccc(-c2nc3cc(NC(=O)c4ccc(Cl)c(C#N)c4)ccc3o2)c1 |  | > 100 | > 100 µM | > 100 µM |  | > 100 | 74.2 |  | 2.36 | 3.7 µM | > 100 |  | 3.05 µM | 1.68 µM | 3.37 µM | 9.21 | > 100 | 7.15 | > 100 | 2.48
15 | Cn1c(=O)c(N=Nc2c(=O)n(C)c(=O)n3c2[nH]c2ccccc23)c2[nH]c3ccccc3n2c1=O |  |  | > 100 µM |  | > 100 µM | > 100 | > 100 |  |  |  |  |  |  |  | > 100 µM |  | > 100 | 91.6 |  | 
16 | O=C(N/N=C/c1ccccc1O)N/N=C/c1ccccc1O |  |  | > 100 µM | > 100 µM | > 100 µM | > 100 | > 100 |  |  |  |  |  |  |  | > 100 µM |  | > 100 | > 100 |  | 
17 | C=C(c1ccccc1)C1(O)CCCCC1N (stereo not drawn) |  |  | > 100 µM | > 100 µM | > 100 µM | > 100 | > 100 |  |  |  |  |  |  |  | > 100 µM |  | 43.5 | > 100 |  | 
18 | Cc1ccc(S(=O)(=O)SC/C=C\CSS(=O)(=O)c2ccc(C)cc2)cc1 | 25.4 | > 66.9 | 33.2 µM and 29.1 µM | 14.6 µM and 72.6 µM | 78.8 µM and 56 µM | > 100 | > 92.6 |  |  | 4.68 µM and 13.5 µM |  |  | > 78.5 µM and 30 µM | 7 µM and 17.2 µM | 43.6 µM and 33.3 µM |  |  | > 100 |  | 
19 | c1cc[c]([Sn][c]2ccccc2)cc1 |  |  | 42 µM | 60.3 µM | 35 µM | > 57.5 | 37.7 |  |  | 20.6 µM | 19.2 | 17.8 | 15 µM | 23.3 µM | 45.5 µM | 15.9 | 41.9 | > 100 | 20.5 | 30.2
20 | O=C(Oc1cccnc1)c1cccnc1Nc1ccnc(C(F)(F)F)c1 | > 100 | 42.1 | 26 µM | 23.8 µM | 62.2 µM | > 100 | 62 | 5.2 | 15 | 8.16 µM | 3.87 | 18.3 | 72.8 µM |  |  | 5.7 |  |  |  | 
21 | O=C(NCCCOC(=O)CCCCCCCCC(=O)OCCCNC(=O)NC(=O)c1c[nH]c(=O)[nH]c1=O)NC(=O)c1c[nH]c(=O)[nH]c1=O |  |  | > 100 µM | > 100 µM | > 100 µM | > 100 | > 100 |  |  |  |  |  |  |  | > 100 µM |  | > 100 |  |  | 
22 | COc1cc(Cl)cc(=O)c(O)c1OC |  |  | > 100 µM | > 100 µM | > 87.2 µM | > 100 | > 100 |  |  |  |  |  |  |  | > 100 µM |  | > 80.9 | > 100 |  | 
